Reference: patent US20120129843A1, “PYRIDYL-THIAZOLYL INHIBITORS OF PRO-MATRIX METALLOPROTEINASE ACTIVATION” (priority 2010, published 2012)
Counter-ions that a name gives are not always drawn.

Legend:
[1] = target: T1, proMMP9(67-444;ΔFnII) (SEQ ID NO:5) (Homo sapiens, UniProt P14780, DEL216-390); assay: ThermoFluor binding assay with proMMP9(67-444;ΔFnII)
T1 construct: start methionine (N); made in house; host or cells: E. coli BL21(DE3) RIL
T1 sequence (P14780 with tags, fused parts or gaps DEL216-390): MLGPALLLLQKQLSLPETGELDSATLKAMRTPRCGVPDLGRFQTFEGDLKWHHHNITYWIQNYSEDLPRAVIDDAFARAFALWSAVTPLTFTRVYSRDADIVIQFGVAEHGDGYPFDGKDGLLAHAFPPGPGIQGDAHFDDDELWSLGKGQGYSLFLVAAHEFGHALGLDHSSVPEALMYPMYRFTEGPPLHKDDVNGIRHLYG
Method: The ThermoFluor® (TF) assay is a 384-well plate-based binding assay that measures thermal stability of proteins (Biomol Screen 2001, 6, 429-40; Biochemistry 2005, 44, 5258-66). The experiments were carried out using instruments available from Johnson & Johnson Pharmaceutical Research & Development, LLC. TF dye used in all experiments was […] (1,8-ANS) (Invitrogen: A-47).
Compounds were arranged in a pre-dispensed plate (Greiner Bio-one: 781280), wherein compounds were serially diluted in 100% DMSO across 11 columns within a series. Columns 12 and 24 were used as DMSO reference and contained no compound. For multiple compound concentration-response experiments, the compound aliquots ([…]) were robotically predispensed directly into black 384-well polypropylene PCR microplates (Abgene: TF-0384/k) using a Cartesian Hummingbird liquid handler (DigiLab, Holliston, Mass.). Following compound dispense, protein and dye solutions were added to achieve the final assay volume of 3 μL. The assay solutions were overlayed with 1 μL of silicone oil (Fluka, type DC 200: 85411) to prevent evaporation.
Assay plates were robotically loaded onto a thermostatically controlled PCR-type thermal block and then heated from 40 to 90° C. at a ramp-rate of 1° C./min for all experiments. Fluorescence was measured by continuous illumination with UV light (Hamamatsu LC6) supplied via fiber optics and filtered through a band-pass filter (380-400 nm; >60D cutoff). Fluorescence emission of the entire 384-well plate was detected by measuring light intensity using a CCD camera (Sensys, Roper Scientific) filtered to detect 500±25 nm, resulting in simultaneous and independent readings of all 384 wells. A single image with 20-sec exposure time was collected at each temperature, and the sum of the pixel intensity in a given area of the assay plate was recorded vs temperature and fit to standard equations to yield the Tm (J Biomol Screen 2001, 6, 429-40).
Thermodynamic parameters necessary for fitting compound binding for each proMMP were estimated by differential scanning calorimetry (DSC) and from ThermoFluor® data. The heat capacity of unfolding for each protein was estimated from the molecular weight and from ThermoFluor® dosing data.
ThermoFluor® with proMMP9(67-444;ΔFnII) (SEQ ID NO:5)
The protein sample preparations had to include a desalting buffer exchange step via a PD-10 gravity column (GE Healthcare). The desalting buffer exchange was performed prior to diluting the protein to the final assay concentration of 3.5 μM proMMP9(67-444;ΔFnII) (SEQ ID NO:5). The concentration of proMMP9(67-444;ΔFnII) (SEQ ID NO:5) was determined spectrophotometrically based on a calculated extinction coefficient of ε280=33900 M^−1cm^−1, a calculated molecular weight of 22.6 kDa, and calculated pI of 5.20. ThermoFluor® reference conditions were defined as follows: 80 μg/mL (3.5 μM) proMMP9(67-444;ΔFnII) (SEQ ID NO:5), 50 μM 1,8-ANS, pH 7.0 Buffer (50 mM HEPES pH 7.0, 100 mM NaCl, 0.001% Tween-20, 2.5 mM MgCl2, 300 μM CaCl2). The thermodynamic parameters for proMMP9(67-444;ΔFnII) (SEQ ID NO:5) are as follows: Tm (° C.)=63 (+/−0.1), ΔUH(Tm) (cal mol^−1)=105000(+/−5000), ΔUS(Tm) (cal mol^−1 K^−1)=[…], ΔUCp (cal mol^−1 K^−1)=2000.

[2] = target: T2, full-length proMMP9(1-707) (SEQ ID NO:1), activation by catalytic MMP3 (Homo sapiens, UniProt P14780, R574P); assay: proMMP9/MMP3 P126 Activation Assay; format: biochemical
T2 construct: made in house; host or cells: HEK293 (proMMP9, secreted); E. coli (MMP3)
T2 sequence (P14780 20-707 R574P): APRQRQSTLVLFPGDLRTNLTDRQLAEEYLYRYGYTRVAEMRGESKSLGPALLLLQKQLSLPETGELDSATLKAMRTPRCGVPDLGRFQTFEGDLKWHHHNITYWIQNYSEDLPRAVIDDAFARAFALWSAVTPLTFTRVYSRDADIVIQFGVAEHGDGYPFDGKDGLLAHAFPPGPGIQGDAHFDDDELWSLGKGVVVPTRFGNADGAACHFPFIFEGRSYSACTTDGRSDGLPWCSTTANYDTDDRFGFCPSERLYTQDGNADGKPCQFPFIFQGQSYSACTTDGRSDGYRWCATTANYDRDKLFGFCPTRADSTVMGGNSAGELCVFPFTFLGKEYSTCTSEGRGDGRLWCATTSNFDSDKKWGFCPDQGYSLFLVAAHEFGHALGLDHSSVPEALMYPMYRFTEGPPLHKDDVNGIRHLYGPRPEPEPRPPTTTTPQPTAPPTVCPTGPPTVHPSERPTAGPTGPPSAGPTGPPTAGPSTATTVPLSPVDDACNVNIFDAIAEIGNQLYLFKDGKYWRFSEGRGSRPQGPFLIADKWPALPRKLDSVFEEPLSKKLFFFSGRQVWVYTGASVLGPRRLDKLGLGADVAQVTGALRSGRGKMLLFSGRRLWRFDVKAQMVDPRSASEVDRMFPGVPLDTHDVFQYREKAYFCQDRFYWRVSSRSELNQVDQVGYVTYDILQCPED
Method: proMMP9/MMP3 P126 Activation Assay
The reaction volume was 50 μL. […] Reactivity of residual MMP3 towards P-126 substrate was minimal under these conditions.

[3] = target: T3, proMMP9(20-445;ΔFnII) (SEQ ID NO:6) (Homo sapiens, UniProt P14780, DEL216-390); assay: ThermoFluor binding assay with proMMP9(20-445;ΔFnII)
T3 construct: start methionine (N); made in house; host or cells: E. coli BL21(DE3) RIL
T3 sequence (P14780 with tags, fused parts or gaps DEL216-390): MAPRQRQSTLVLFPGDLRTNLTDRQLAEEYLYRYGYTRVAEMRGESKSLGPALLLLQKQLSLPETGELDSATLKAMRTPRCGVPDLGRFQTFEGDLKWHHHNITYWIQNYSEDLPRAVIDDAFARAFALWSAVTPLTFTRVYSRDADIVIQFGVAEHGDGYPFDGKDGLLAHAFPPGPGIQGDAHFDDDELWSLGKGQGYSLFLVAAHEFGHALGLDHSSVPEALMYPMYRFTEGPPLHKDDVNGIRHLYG
Method in brief: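 Thermal-shift binding using 2.8 μM proMMP9(20-445;ΔFnII) with 50 μM 1,8-ANS in 50 mM HEPES pH 7.0, 100 mM NaCl, 0.001% Tween-20, 2.5 mM MgCl2, 300 μM CaCl2. Compound serially diluted; heated 40–90 °C at 1 °C/min, fluorescence 500 nm. Tm shifts fitted using DSC/ThermoFluor-derived thermodynamic parameters.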

Row | SMILES | Kd [1] [nM] | IC50 [2] [nM] | Kd [3] [nM]
1 | CC(C)Oc1ccc(S(N)(=O)=O)cc1Nc1nc(-c2ccc(N3CCNC(=O)C3)nc2)cs1 [Example 64, 4-Isopropoxy-3-((4-(6-(3-oxopiperazin-1-yl)pyridin-3-yl)thiazol-2-yl)amino)benzenesulfonamide.TFA] | 2500 | 120 | 260
2 | CC(C)Oc1ccc(S(N)(=O)=O)cc1Nc1nc(-c2ccc(CO)nc2)cs1 [Example 56, 3-[4-(6-Hydroxymethyl-pyridin-3-yl)-thiazol-2-ylamino]-4-isopropoxy-benzenesulfonamide] | 1500 | 390 | 640
3 | CCN1CCN(C(=O)c2ccc(-c3csc(Nc4cc(S(N)(=O)=O)ccc4OC(C)C)n3)cn2)CC1 [Example 47, 4-Isopropoxy-3-{4-[6-(4-ethyl-piperazine-1-carbonyl)-pyridin-3-yl]-thiazol-2-ylamino}-benzenesulfonamide.TFA] | 1500 | 980 | 900
4 | CC(C)Cc1ccc(C(N)=O)cc1Nc1nc(-c2ccc(N3CCN(C)CC3)nc2)cs1 [Example 8, 4-Isobutyl-3-{4-[6-(4-methyl-piperazin-1-yl)-pyridin-3-yl]-thiazol-2-ylamino}-benzamide.TFA] | 2900 | 1800 | 370
5 | CC(C)Oc1ccc(S(N)(=O)=O)cc1Nc1nc(-c2ccc(N3CCC(N(C)C)CC3)nc2)cs1 [Example 41, 3-[4-(4-Dimethylamino-3,4,5,6-tetrahydro-2H-[1,2′]bipyridinyl-5′-yl)-thiazol-2-ylamino]-4-isopropoxy-benzenesulfonamide.TFA] | 220 | 59 | 51
6 | CC(C)Oc1ccc(S(C)(=O)=O)cc1Nc1nc(-c2cccnc2)cs1 [Example 10, (2-Isopropoxy-5-methanesulfonyl-phenyl)-(4-pyridin-3-yl-thiazol-2-yl)-amine.TFA] | 3500 | 2600 | 660
7 | CC(C)Oc1ccc(S(N)(=O)=O)cc1Nc1nc(-c2ccc(C(=O)N3CCNCC3)nc2)cs1 [Example 58, 4-Isopropoxy-3-{4-[6-(piperazine-1-carbonyl)-pyridin-3-yl]-thiazol-2-ylamino}-benzenesulfonamide.TFA] | 3100 | 1400 | 1200
8 | CC(C)Oc1ccc(S(N)(=O)=O)cc1Nc1nc(-c2ccc(NCC3CC3)nc2)cs1 [Example 62, 3-((4-(6-((Cyclopropylmethyl)amino)pyridin-3-yl)thiazol-2-yl)amino)-4-isopropoxybenzenesulfonamide.TFA] | 2200 | 610 | 510
9 | CC(C)Oc1ccc(S(N)(=O)=O)cc1Nc1nc(-c2ccc(C(=O)O)nc2)cs1 [Example 45, 5-[2-(2-Isopropoxy-5-sulfamoyl-phenylamino)-thiazol-4-yl]-pyridine-2-carboxylic acid.HCl] | 3700 | 370 | 470
10 | CC(C)Oc1ccc(C#N)cc1Nc1nc(-c2cccnc2)cs1 [Example 16, 4-Isopropoxy-3-(4-pyridin-3-yl-thiazol-2-ylamino)-benzonitrile.HBr] | 2900 | 3200 | 20000
11 | COc1cc(C)c(C(N)=O)cc1Nc1nc(-c2ccc(N3CCN(C)CC3)nc2)cs1 [Example 7, 4-Methoxy-2-methyl-5-{4-[6-(4-methyl-piperazin-1-yl)-pyridin-3-yl]-thiazol-2-ylamino}-benzamide.TFA] | 3900 | 2400 | 1200
12 | CC(C)Oc1ccc(S(N)(=O)=O)cc1Nc1nc(-c2ccc(N3CCN(C)CC3)nc2)cs1 [Example 33, 4-Isopropoxy-3-{4-[6-(4-methyl-piperazin-1-yl)-pyridin-3-yl]-thiazol-2-ylamino}-benzenesulfonamide.HCl] | 120 | 140 | 46
13 | CC(C)Oc1ccc(S(N)(=O)=O)cc1Nc1nc(-c2ccc(N(C)CCN(C)C)nc2)cs1 [Example 43, 3-(4-{6-[(2-Dimethylamino-ethyl)-methyl-amino]-pyridin-3-yl}-thiazol-2-ylamino)-4-isopropoxy-benzenesulfonamide.TFA] | 1700 | 200 | 120
14 | CN1CCN(c2ccc(-c3csc(Nc4cc(C(N)=O)ccc4OC(F)(F)F)n3)cn2)CC1 [Example 31, 3-{4-[6-(4-Methyl-piperazin-1-yl)-pyridin-3-yl]-thiazol-2-ylamino}-4-trifluoromethoxy-benzamide] | 610 | 640 | 110
15 | CC(C)Oc1ccc(S(N)(=O)=O)cc1Nc1nc(-c2ccc(N3CCOCC3)nc2)cs1 [Example 37, 4-Isopropoxy-3-[4-(6-morpholin-4-yl-pyridin-3-yl)-thiazol-2-ylamino]-benzenesulfonamide.TFA] | 2400 | ~2000 | 1300
16 | COc1ccc(S(N)(=O)=O)cc1Nc1nc(-c2ccc(N3CCN(C)CC3)nc2)cs1 [Example 29, 4-Methoxy-3-{4-[6-(4-methyl-piperazin-1-yl)-pyridin-3-yl]-thiazol-2-ylamino}-benzenesulfonamide] | 1600 | 1400 | 930
17 | CC(C)CCNC(=O)c1ccc(-c2csc(Nc3cc(S(N)(=O)=O)ccc3OC(C)C)n2)cn1 [Example 85, N-Isopentyl-5-(2-((2-isopropoxy-5-sulfamoylphenyl)amino)thiazol-4-yl)picolinamide.TFA] | 32000 | ~20000 | 4600
18 | NC(=O)c1ccc(OC(F)(F)F)c(Nc2nc(-c3ccnc(Cl)c3)cs2)c1 [Example 34, 3-[4-(2-Chloro-pyridin-4-yl)-thiazol-2-ylamino]-4-trifluoromethoxy-benzamide.TFA] | 1500 | 1100 | 180
19 | CC(C)Oc1ccc(S(N)(=O)=O)cc1Nc1nc(-c2ccc(N3CCN(C(C)C)CC3)nc2)cs1 [Example 39, 4-Isopropoxy-3-{4-[6-(4-isopropyl-piperazin-1-yl)-pyridin-3-yl]-thiazol-2-ylamino}-benzenesulfonamide.TFA] | 170 | 87 | 70
